In patent US12516016B2, “GPX4 inhibitors, pharmaceutical compositions thereof, and their use for treating GPX4-mediated diseases” (EUBULUS BIOTHERAPEUTICS (HONG KONG) LIMITED, priority 2020, dated 2026):

These compounds were tested on hepatocellular carcinoma cell line Hub-7 (assay: Cell proliferation assay (CELL-TITER GLO cell viability)). Conditions: 24 h, Hub-7 cells, 24 h incubation, read-out: Inhibition of Cell Proliferation EC50.
Format: cell-based
Protocol: The activity of a test compound was determined in a cell proliferation assay using the hepatocellular carcinoma cell line […]. Cells (4,000 cells per well) were seeded in a 96-well tissue culture plate. After incubated overnight, a test compound was added at predetermined concentrations, starting with 10 μM and followed by 3-fold serial dilution. After the cells were incubated for 24 h, cell viability was determined using a CELL-TITER GLO® assay. The CELL-TITER GLO® reagent (50 μL) was added to each well and the luminescence was measured by a multimode microplate reader after a brief period of shaking. EC50 values were determined for the test compound. The results are summarized in Table 1, wherein A represents a value no greater than 100 nM, B represents a value greater than 100 nM but no greater than 500 nM, C represents a value greater than 500 nM but no greater than 2 μM, D represents a value greater than 2 μM but no greater than 10 μM; and E represents a value greater than 10 μM.

| Compound | EC50 |
| --- | --- |
| C#CC(=O)N(c1cccc(S(N)(=O)=O)c1)C(C(=O)NC(C)(C)C)c1ccc(N)cc1 (centres unmarked) [A2, N-(1-(4-aminophenyl)-2-(tert-butylamino)-2-oxoethyl)-N-(3-sulfamoylphenyl)propiolamide] | > 10000 nM |
| C#CC(=O)N(c1ccc(OC)c(Cl)c1)C(C(=O)NC(C)(C)C)c1ccc(N)cc1 (centres unmarked) [A3, N-(1-(4-Aminophenyl)-2-(tert-butylamino)-2-oxoethyl)-N-(3-chloro-4-methoxy-phenyl)propiolamide] | ≤ 100 nM |
| C#CC(=O)N(c1ccc(Cl)cc1)C(C(=O)NC(C)(C)C)c1ccc(N)cc1 (centres unmarked) [A4, N-(1-(4-Aminophenyl)-2-(tert-butylamino)-2-oxoethyl)-N-(4-chlorophenyl)-propiolamide] | 100 to 500 nM |
| C#CC(=O)N(c1cccc(Cl)c1)C(C(=O)NC(C)(C)C)c1ccc(N)cc1 (centres unmarked) [A5, N-(1-(4-Aminophenyl)-2-(tert-butylamino)-2-oxoethyl)-N-(3-chlorophenyl)-propiolamide] | 100 to 500 nM |
| C#CC(=O)N(c1cccc(S(C)(=O)=O)c1)C(C(=O)NC(C)(C)C)c1ccc(N)cc1 (centres unmarked) [A6, N-(1-(4-Aminophenyl)-2-(tert-butylamino)-2-oxoethyl)-N-(3-(methylsulfonyl)phenyl)propiolamide] | 2000 to 10000 nM |
| C#CC(=O)N(c1cccc(OC)c1)C(C(=O)NC(C)(C)C)c1ccc(N)cc1 (centres unmarked) [A7, N-(1-(4-Aminophenyl)-2-(tert-butylamino)-2-oxoethyl)-N-(3-methoxyphenyl)-propiolamide] | 100 to 500 nM |
| C#CC(=O)N(c1cccc(C(=O)OC)c1)C(C(=O)NC(C)(C)C)c1ccc(N)cc1 (centres unmarked) [A8, Methyl 3-(N-(1-(4-aminophenyl)-2-(tert-butylamino)-2-oxoethyl)-propiolamido)-benzoate] | ≤ 100 nM |
| C#CC(=O)N(c1ccc(N)cc1)C(C(=O)NC(C)(C)C)c1ccc(N)cc1 (centres unmarked) [A9, N-(4-Aminophenyl)-N-(1-(4-aminophenyl)-2-(tert-butylamino)-2-oxoethyl)-propiolamide] | 2000 to 10000 nM |
| C#CC(=O)N(c1ccc(C(N)=O)cc1)C(C(=O)NC(C)(C)C)c1ccc(N)cc1 (centres unmarked) [A10, 4-(N-(1-(4-Aminophenyl)-2-(tert-butylamino)-2-oxoethyl)propiolamido)-benzamide] | > 10000 nM |
| C#CC(=O)N(c1ccc(S(N)(=O)=O)cc1)C(C(=O)NC(C)(C)C)c1ccc(N)cc1 (centres unmarked) [A11, N-(1-(4-Aminophenyl)-2-(tert-butylamino)-2-oxoethyl)-N-(4-sulfamoylphenyl)-propiolamide] | > 10000 nM |
| C#CC(=O)N(c1ccc(O)cc1)C(C(=O)NC(C)(C)C)c1ccc(N)cc1 (centres unmarked) [A12, N-(1-(4-Aminophenyl)-2-(tert-butylamino)-2-oxoethyl)-N-(4-hydroxyphenyl)-propiolamide] | > 10000 nM |
| C#CC(=O)N(c1ccc(NC(C)=O)cc1)C(C(=O)NC(C)(C)C)c1ccc(N)cc1 (centres unmarked) [A13, N-(4-Acetamidophenyl)-N-(1-(4-aminophenyl)-2-(tert-butylamino)-2-oxoethyl)-propiolamide] | 2000 to 10000 nM |
| C#CC(=O)N(c1ccc(C(=O)OC)cc1)C(C(=O)NC(C)(C)C)c1ccc(N)cc1 (centres unmarked) [A14, Methyl 4-(N-(1-(4-aminophenyl)-2-(tert-butylamino)-2-oxoethyl)-propiolamido)-benzoate] | ≤ 100 nM |
| C#CC(=O)N(c1ccc(S(C)(=O)=O)cc1)C(C(=O)NC(C)(C)C)c1ccc(N)cc1 (centres unmarked) [A15, N-(1-(4-Aminophenyl)-2-(tert-butylamino)-2-oxoethyl)-N-(4-(methylsulfonyl)-phenyl)propiolamide] | 2000 to 10000 nM |
| C#CC(=O)N(c1ccc(CO)cc1)C(C(=O)NC(C)(C)C)c1ccc(N)cc1 (centres unmarked) [A16, N-(1-(4-Aminophenyl)-2-(tert-butylamino)-2-oxoethyl)-N-(4-(hydroxymethyl)-phenyl)propiolamide] | 2000 to 10000 nM |
| C#CC(=O)N(c1ccc(NS(C)(=O)=O)cc1)C(C(=O)NC(C)(C)C)c1ccc(N)cc1 (centres unmarked) [A17, N-(1-(4-Aminophenyl)-2-(tert-butylamino)-2-oxoethyl)-N-(4-(methyl-sulfonamido)phenyl)propiolamide] | > 10000 nM |
| C#CC(=O)N(c1ccc(OC)cc1)C(C(=O)NC(C)(C)C)c1ccc(N)cc1 (centres unmarked) [A18, N-(1-(4-Aminophenyl)-2-(tert-butylamino)-2-oxoethyl)-N-(4-methoxyphenyl)-propiolamide] | 500 to 2000 nM |
| C#CC(=O)N(c1cccc(Cl)c1)C(C(=O)NC(C)(C)C)c1cccc(N)c1 (centres unmarked) [A20, N-(1-(3-aminophenyl)-2-(tert-butylamino)-2-oxoethyl)-N-(3-chlorophenyl)propiolamide] | 100 to 500 nM |
| C#CC(=O)N(c1ccc(OC)c(Cl)c1)C(C(=O)NC(C)(C)C)c1cccc(N)c1 (centres unmarked) [A21, N-(1-(3-Aminophenyl)-2-(tert-butylamino)-2-oxoethyl)-N-(3-chloro-4-methoxyphenyl)propiolamide] | 100 to 500 nM |

| Compound | EC50 |
| --- | --- |
| C#CC(=O)N(c1ccc(N)cc1)C(C(=O)NC(C)(C)C)c1cccc(N)c1 (centres unmarked) [A22, N-(4-Aminophenyl)-N-(1-(3-aminophenyl)-2-(tert-butylamino)-2-oxoethyl)-propiolamide] | 2000 to 10000 nM |
| C#CC(=O)N(c1ccc(NC(C)=O)cc1)C(C(=O)NC(C)(C)C)c1cccc(N)c1 (centres unmarked) [A23, N-(4-Acetamidophenyl)-N-(1-(3-aminophenyl)-2-(tert-butylamino)-2-oxoethyl)-propiolamide] | 2000 to 10000 nM |
| C#CC(=O)N(c1ccc(NS(C)(=O)=O)cc1)C(C(=O)NC(C)(C)C)c1cccc(N)c1 (centres unmarked) [A24, N-(1-(3-Aminophenyl)-2-(tert-butylamino)-2-oxoethyl)-N-(4-(methyl-sulfonamido)phenyl)propiolamide] | > 10000 nM |
| C#CC(=O)N(c1ccc(S(N)(=O)=O)cc1)C(C(=O)NC(C)(C)C)c1cccc(N)c1 (centres unmarked) [A25, N-(1-(3-Aminophenyl)-2-(tert-butylamino)-2-oxoethyl)-N-(4-sulfamoylphenyl)-propiolamide] | > 10000 nM |
| C#CC(=O)N(c1ccc(CO)cc1)C(C(=O)NC(C)(C)C)c1cccc(N)c1 (centres unmarked) [A26, N-(1-(3-Aminophenyl)-2-(tert-butylamino)-2-oxoethyl)-N-(4-(hydroxymethyl)-phenyl)propiolamide] | 2000 to 10000 nM |
| C#CC(=O)N(c1ccc(O)cc1)C(C(=O)NC(C)(C)C)c1cccc(N)c1 (centres unmarked) [A27, N-(1-(3-Aminophenyl)-2-(tert-butylamino)-2-oxoethyl)-N-(4-hydroxyphenyl)-propiolamide] | 2000 to 10000 nM |
| C#CC(=O)N(c1ccc(OC)cc1)C(C(=O)NC(C)(C)C)c1cccc(N)c1 (centres unmarked) [A29, N-(1-(3-Aminophenyl)-2-(tert-butylamino)-2-oxoethyl)-N-(4-methoxyphenyl)-propiolamide] | 500 to 2000 nM |
| C#CC(=O)N(c1cccc(Cl)c1)C(C(=O)NCc1ccccc1)c1ccc(N)cc1 (centres unmarked) [A32, N-(1-(4-Aminophenyl)-2-(benzylamino)-2-oxoethyl)-N-(3-chlorophenyl)-propiolamide] | ≤ 100 nM |
| C#CC(=O)N(c1cccc(Cl)c1)C(C(=O)NCc1ccccc1)c1cccc(N)c1 (centres unmarked) [A33, N-(1-(3-Aminophenyl)-2-(benzylamino)-2-oxoethyl)-N-(3-chlorophenyl)-propiolamide] | ≤ 100 nM |
| C#CC(=O)N(c1ccc(OC)c(Cl)c1)C(C(=O)NCc1ccccc1)c1cccc(N)c1 (centres unmarked) [A34, N-(1-(3-Aminophenyl)-2-(benzylamino)-2-oxoethyl)-N-(3-chloro-4-methoxy-phenyl)propiolamide] | ≤ 100 nM |
| C#CC(=O)N(Cc1ccccc1)C(C(=O)NCc1ccccc1)c1cccc(N)c1 (centres unmarked) [A36, N-(1-(3-Aminophenyl)-2-(benzylamino)-2-oxoethyl)-N-benzylpropiolamide] | 500 to 2000 nM |
| C#CC(=O)N(c1cccc(O)c1)C(C(=O)NCc1ccccc1)c1cccc(N)c1 (centres unmarked) [A37, N-(1-(3-Aminophenyl)-2-(benzylamino)-2-oxoethyl)-N-(3-hydroxyphenyl)-propiolamide] | ≤ 100 nM |
| C#CC(=O)N(c1cccc(C#N)c1)C(C(=O)NCc1ccccc1)c1cccc(N)c1 (centres unmarked) [A38, N-(1-(3-Aminophenyl)-2-(benzylamino)-2-oxoethyl)-N-(3-cyanophenyl)-propiolamide] | 100 to 500 nM |
| C#CC(=O)N(c1cccc(CO)c1)C(C(=O)NCc1ccccc1)c1cccc(N)c1 (centres unmarked) [A39, N-(1-(3-Aminophenyl)-2-(benzylamino)-2-oxoethyl)-N-(3-(hydroxymethyl)-phenyl)propiolamide] | 2000 to 10000 nM |
| C#CC(=O)N(c1cc(Cl)ccc1F)C(C(=O)NCc1ccccc1)c1cccc(N)c1 (centres unmarked) [A40, N-(1-(3-Aminophenyl)-2-(benzylamino)-2-oxoethyl)-N-(5-chloro-2-fluorophenyl)-propiolamide] | ≤ 100 nM |
| C#CC(=O)N(c1cccc(Cl)c1F)C(C(=O)NCc1ccccc1)c1cccc(N)c1 (centres unmarked) [A41, N-(1-(3-Aminophenyl)-2-(benzylamino)-2-oxoethyl)-N-(3-chloro-2-fluoro-phenyl)propiolamide] | ≤ 100 nM |
| C#CC(=O)N(c1cccc(NS(C)(=O)=O)c1)C(C(=O)NCc1ccccc1)c1cccc(N)c1 (centres unmarked) [A42, N-(1-(3-Aminophenyl)-2-(benzylamino)-2-oxoethyl)-N-(3-(methylsulfonamido)-phenyl)propiolamide] | 2000 to 10000 nM |
| C#CC(=O)N(c1cccc(F)c1)C(C(=O)NCc1ccccc1)c1cccc(N)c1 (centres unmarked) [A43, N-(1-(3-Aminophenyl)-2-(benzylamino)-2-oxoethyl)-N-(3-fluorophenyl)-propiolamide] | 100 to 500 nM |

Same assay, conditions: Hub-7 cells, 24 h incubation, read-out: Inhibition of Cell Proliferation EC50

| Compound | EC50 |
| --- | --- |
| C#CC(=O)N(c1cccc(C(=O)OC)c1)C(C(=O)NC(C)(C)C)c1ccc(N)cc1 (centres unmarked) [A28, Methyl 3-(N-(1-(4-aminophenyl)-2-(tert-butylamino)-2-oxoethyl)-propiolamido)-benzoate] | 100 to 500 nM |
